Holding throughout (type): cell-based
The subject of assay [1] is Aspergillus niger ATCC 6275. Nature of the assay: Agar incorporation test (MIC test). The following applies: A. niger. The method, then: (§1) Determination of the Minimum Inhibiting Concentration (MIC) in the Agar Incorporation Test (MIC Test)
(§2) When the nutrient substrate has solidified, 10 μl portions of the following organism dilutions of the test strains in 0.85% NaCl solution are spotted onto the agar medium:
(§3) The plates are incubated at 37° C. for 24 hours (A.niger 3 days at 28° C.) and then the highest dilution of the test substance at which growth is just no longer discernible (corresponds to MIC) is determined.

Assay [2] concerns Corynebacterium xerosis ATCC 373. The assay can be described thus: Agar incorporation test (MIC test). The settings on record: C. xerosis. The method, then: as §1, §2, §3
Assay [3] relates to Staphylococcus epidermidis ATCC 12228. The assay can be described thus: Agar incorporation test (MIC test). The settings on record: S. epidermidis. The method, then:
as §1, §2, §3

Assay [4] has as its system Staphylococcus aureus ATCC 9144. Nature of the assay: Agar incorporation test (MIC test). The following applies: S. aureus. The method, then:
as §1, §2, §3

For assay [5], the system named is Candida albicans ATCC 10231. Nature of the assay: Agar incorporation test (MIC test). The following applies: C. albicans. The method, then:
as §1, §2, §3

For assay [6], the system named is Escherichia coli NCTC 8196. Nature of the assay: Agar incorporation test (MIC test). The settings on record: E. coli. The method, then:
as §1, §2, §3

Assay [7] concerns Pseudomonas aeruginosa CIP A-22. Nature of the assay: Agar incorporation test (MIC test). The settings on record: P. aeruginosa. The method, then: as §1, §2, §3
Assay [8] concerns Pseudomonas aeruginosa ATCC 15 442. Nature of the assay: Agar diffusion test. Note: values in mm. The settings on record: P. aeruginosa ATCC 15 442. The method, then: (§4) Determination of antimicrobial activity in the agar diffusion test [table] After the bacteria precultures have been incubated, they are diluted 1:100 with dilution medium. 3.5 ml of that dilution of the bacteria are introduced into 500 ml of agar and from that organism-containing agar plates of about 15 ml of medium are poured. […] After the agar plates have cooled and solidified, wells are punched in the agar (diameter 10 mm) and 100 μl of test substance solution are introduced into each well. After incubation of the plates, the diameters of the growth-free inhibiting areolas in the agar are determined.
On the technique in general: A growth-free zone around the sample is the usual read-out of agar diffusion tests.

Assay [9] relates to Staphylococcus aureus ATCC 9144. Nature of the assay: Agar diffusion test. Note: values in mm. The settings on record: S. aureus ATCC 9144. The method, then:
as §4

The test system of assay [10] is Candida albicans ATCC 10231. Nature of the assay: Agar diffusion test. Note: values in mm. The method, then:
as §4

The subject of assay [11] is Escherichia coli NCTC 8196. Nature of the assay: Agar diffusion test. Note: values in mm. The settings on record: E. coli NCTC 8196. The method, then:
as §4

Assay [12] has as its system Aspergillus niger ATCC 6275. The assay can be described thus: Agar diffusion test. Note: values in mm. The settings on record: A. niger ATCC 6275. The method, then: Determination of antimicrobial activity in the agar diffusion test [table] After the bacteria precultures have been incubated, they are diluted 1:100 with dilution medium. 3.5 ml of that dilution of the bacteria are introduced into 500 ml of agar and from that organism-containing agar plates of about 15 ml of medium are poured. The test substances are dissolved in a suitable solvent in final concentrations of 1-3%. After the agar plates have cooled and solidified, wells are punched in the agar (diameter 10 mm) and 100 μl of test substance solution are introduced into each well. After incubation of the plates, the diameters of the growth-free inhibiting areolas in the agar are determined.

Where [13] appears, read: 1% in ethanol, C. albicans ATCC 10231.
[14] abbreviates: 2% in ethanol, C. albicans ATCC 10231.

For `O=c1oc(-c2ccccc2O)ns1` [compound 101], the MIC is given as 100 ppm in [1] (solution in EtOH); 250 ppm in [2] (solution in EtOH); 100 ppm in assay [3] (solution in EtOH); 100 ppm in assay [4] (solution in EtOH); 100 ppm in assay [5] (solution in EtOH); 1000 ppm in assay [6] (solution in EtOH). The molecule also yielded an MIC in assay [7] (solution in EtOH) of 1000 ppm.

For the molecule `O=c1oc(-c2cccnc2)ns1` [compound 103], the MIC in assay [1] (solution in EtOH) was 600 ppm; in assay [2] (solution in EtOH) it was 200 ppm; in [3] (solution in EtOH) it was 100 ppm; in assay [4] (solution in EtOH), 100 ppm; in [5] (solution in EtOH), 100 ppm; in [6] (solution in EtOH) it was 600 ppm. Also, in assay [7] (solution in EtOH), the MIC is 600 ppm.

Regarding `O=c1oc(-c2ccc([N+](=O)[O-])o2)ns1` [compound 105], the Inhibiting areola diameter in [8] (0.1% in THF) is 0/0; in assay [8] (0.5% in THF), 1/1; in assay [8] (1.0% in THF), 5/5; in [8] (3.0% in THF), 6/6; in assay [9] (0.1% in THF), 4/4; in assay [9] (0.5% in THF) it was 10/10. Besides, the Inhibiting areola diameter in [9] (1.0% in THF) was 11/11; in [9] (3.0% in THF) it was 11/11; in assay [10] (0.1% in THF, C. albicans ATCC 10 231), 3/3; in [10] (0.5% in THF, C. albicans ATCC 10 231), 4/4; in assay [10] (1.0% in THF, C. albicans ATCC 10 231), 8/8; in assay [10] (3.0% in THF, C. albicans ATCC 10 231), 9/9. The Inhibiting areola diameter in assay [11] (0.1% in THF) is listed as 1/1; in assay [11] (0.5% in THF) it was 3/3; in assay [11] (1.0% in THF) it was 6/6; in assay [11] (3.0% in THF) it was 6/6.

Consider `O=c1oc(-c2ccccc2)ns1` [compound 106], for which the MIC is recorded as 250 ppm in assay [1] (solution in DMSO); 10 ppm in assay [2] (solution in DMSO); 10 ppm in assay [3] (solution in DMSO); 10 ppm in [4] (solution in DMSO); 100 ppm in [5] (solution in DMSO); 100 ppm in [6] (solution in DMSO). In addition, the MIC in [7] (solution in DMSO) turned out to be 1000 ppm.

Regarding `O=c1oc(-c2ccc(Cl)cc2)ns1` [compound 107], the Inhibiting areola diameter in [9] (1% in ethanol) was 4/4; in assay [9] (2% in ethanol), 5/5; in [10] (setting [13]), 3/3; in [10] (setting [14]), 4/4; in [11] (1% in ethanol) it was 1/1; in assay [11] (2% in ethanol), 1/1. For the same molecule, the Inhibiting areola diameter in assay [12] (1% in ethanol) and in assay [12] (2% in ethanol) was 0/0 throughout.

For the molecule `Cc1nsc(=O)o1` [compound 108], the Inhibiting areola diameter in [9] (1% in ethanol) is 12/12; in assay [9] (2% in ethanol) it was 20/20; in assay [10] (setting [13]) it was 8/8; in [10] (setting [14]), 10/10; in assay [11] (1% in ethanol) it was 1/1; in assay [11] (2% in ethanol), 3/2. Moreover, the Inhibiting areola diameter is listed as 4/5 in assay [12] (1% in ethanol) and 12/12 in assay [12] (2% in ethanol).

Values taken from US6689372B1, “Microbicidal active substances” (Ciba Specialty Chemicals Corporation, priority 1998, dated 2004).
